The target in one experiment is T1, human glucagon receptor (Homo sapiens, UniProt P47871).
T1 construct: host or cells: CHO cells
Description: DiscoveRx LeadHunter cellular assay, cAMP stimulation, glucagon receptor in CHO cells. The experiment is classed as cell-based.

Another experiment has as its target T2, human GLP-1 receptor (Homo sapiens, UniProt P43220).
T2 construct: host or cells: CHO cells
Nature of the experiment: DiscoveRx LeadHunter cellular assay, cAMP stimulation, GLP-1 receptor in CHO cells. The experiment is classed as cell-based. The settings on record: human GLP-1 receptor in CHO cells (DiscoveRx); read-out: EC50 cAMP GLP-1 R.

These results are taken from patent publication US11541028B2, “Peptide pharmaceuticals for treatment of NASH and other disorders” (Mederis Diabetes LLC, priority 2018, dated 2023).

SMILES strings stand for the structures. Where two headings read alike, the source gives them in different places. Bridge positions count the residues as written; N and C are the ends. Square brackets hold non-standard residues; d marks the D form. Peptide text beside a SMILES is read from it. * marks the point of attachment. Melibiouronoyl(1β-O-dodecyl) = CCCCCCCCCCCCO[C@@H]1O[C@H](CO[C@H]2O[C@H](C(=O)*)[C@H](O)[C@H](O)[C@H]2O)[C@@H](O)[C@H](O)[C@H]1O; βDGlcA(1-OC18H37) = CCCCCCCCCCCCCCCCCCO[C@@H]1O[C@H](C(=O)*)[C@@H](O)[C@H](O)[C@H]1O; Bip = N[C@@H](Cc1ccc(-c2ccccc2)cc1)C(=O)O; αMeF = C[C@](N)(Cc1ccccc1)C(=O)O; Aib = CC(C)(N)C(=O)O

T1 sequence (P47871 26-477): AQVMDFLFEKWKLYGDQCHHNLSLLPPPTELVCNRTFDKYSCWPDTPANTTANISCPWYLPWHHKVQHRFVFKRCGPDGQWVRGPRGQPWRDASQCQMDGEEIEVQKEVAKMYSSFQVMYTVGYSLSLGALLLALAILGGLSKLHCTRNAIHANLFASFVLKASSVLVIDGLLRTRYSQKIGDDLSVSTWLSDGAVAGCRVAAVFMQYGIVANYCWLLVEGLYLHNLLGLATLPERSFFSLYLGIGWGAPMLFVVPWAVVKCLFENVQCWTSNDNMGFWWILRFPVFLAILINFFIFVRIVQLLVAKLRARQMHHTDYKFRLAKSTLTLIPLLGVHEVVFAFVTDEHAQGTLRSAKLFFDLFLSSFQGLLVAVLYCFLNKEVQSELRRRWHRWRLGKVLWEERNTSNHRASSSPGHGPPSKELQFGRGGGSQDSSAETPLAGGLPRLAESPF
T2 sequence (P43220 24-463): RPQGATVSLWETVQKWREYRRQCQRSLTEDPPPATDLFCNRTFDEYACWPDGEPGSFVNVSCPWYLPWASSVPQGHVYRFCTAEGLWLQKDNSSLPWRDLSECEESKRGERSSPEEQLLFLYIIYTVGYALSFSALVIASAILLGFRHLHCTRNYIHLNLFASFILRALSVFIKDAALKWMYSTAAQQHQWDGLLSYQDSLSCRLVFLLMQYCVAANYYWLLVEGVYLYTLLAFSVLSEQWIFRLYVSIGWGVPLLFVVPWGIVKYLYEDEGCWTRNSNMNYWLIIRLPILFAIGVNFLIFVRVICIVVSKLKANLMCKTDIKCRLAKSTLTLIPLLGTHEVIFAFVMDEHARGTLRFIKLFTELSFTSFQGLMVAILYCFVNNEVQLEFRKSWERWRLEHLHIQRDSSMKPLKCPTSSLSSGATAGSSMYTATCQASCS
Description for human GLP-1 receptor: (§1) A further series of cellular assays was carried out with standard cellular assays (DiscoveRx, LeadHunter assays) using readout of cAMP stimulation or arrestin activation. Compounds were weighed precisely in an amount of about 1 mg and shipped to DiscoveRx for dilution and assay.
Description for human glucagon receptor: as §1

As for `CCCCCCCCCCCCCCCCCCO[C@@H]1O[C@H](C(=O)NCCCC[C@H](NC(=O)[C@H](Cc2ccc(-c3ccccc3)cc2)NC(=O)[C@H](CC(=O)O)NC(=O)[C@H](CO)NC(=O)[C@@H](NC(=O)[C@](C)(Cc2ccccc2)NC(=O)[C@@H](NC(=O)CNC(=O)[C@H](CCC(N)=O)NC(=O)C(C)(C)NC(=O)[C@@H](N)Cc2c[nH]cn2)[C@@H](C)O)[C@@H](C)O)C(N)=O)[C@@H](O)[C@H](O)[C@H]1O` [EU-A757] (H-H[Aib]QGT[αMeF]TSD[Bip]K(βDGlcA(1-OC18H37))-NH2; N-terminus assumed), the EC50 on human glucagon receptor (read-out: EC50 cAMP Glucagon R, human glucagon receptor in CHO cells (DiscoveRx)) is above 1000 nM.
Turning to `CCCCCCCCCCCCCCCCCCO[C@@H]1O[C@H](C(=O)NCCCC[C@H](NC(=O)[C@@H](NC(=O)[C@H](Cc2ccccc2)NC(=O)[C@H](CCC(=O)O)NC(=O)[C@@H]2CCCCNC(=O)CC[C@H](NC(=O)[C@H](CC(=O)O)NC(=O)[C@H](CC(C)C)NC(=O)[C@H](Cc3ccc(O)cc3)NC(=O)[C@H](CCCCN)NC(=O)[C@H](CO)NC(=O)[C@H](Cc3ccc(O)cc3)NC(=O)[C@H](CC(=O)O)NC(=O)[C@H](CO)NC(=O)[C@@H](NC(=O)[C@H](Cc3ccccc3)NC(=O)[C@@H](NC(=O)CNC(=O)[C@H](CCC(N)=O)NC(=O)C(C)(C)NC(=O)[C@@H](N)Cc3c[nH]cn3)[C@@H](C)O)[C@@H](C)O)C(=O)N[C@@H](CCC(N)=O)C(=O)N[C@@H](C)C(=O)N[C@@H](C)C(=O)N2)[C@@H](C)CC)C(=O)N[C@@H](Cc2c[nH]c3ccccc23)C(=O)N[C@@H](CC(C)C)C(=O)N[C@@H](CC(C)C)C(=O)N[C@@H](CCC(N)=O)C(=O)N[C@H](C(N)=O)[C@@H](C)O)[C@@H](O)[C@H](O)[C@H]1O` [EU-A996], the 50% effective concentration (EC50) on human GLP-1 receptor was found to be 0.05 nM.
`CCCCCCCCCCCCO[C@@H]1O[C@H](C(=O)O)[C@@H](O[C@H]2O[C@H](C(=O)NCCCC[C@H](NC(=O)[C@@H](NC(=O)[C@H](Cc3ccccc3)NC(=O)[C@H](CCC(=O)O)NC(=O)[C@@H]3CCCCNC(=O)CC[C@H](NC(=O)[C@H](CC(=O)O)NC(=O)[C@H](CC(C)C)NC(=O)[C@H](Cc4ccc(O)cc4)NC(=O)[C@H](CCCCN)NC(=O)[C@H](CO)NC(=O)[C@H](Cc4ccc(O)cc4)NC(=O)[C@H](CC(=O)O)NC(=O)[C@H](CO)NC(=O)[C@@H](NC(=O)[C@H](Cc4ccccc4)NC(=O)[C@@H](NC(=O)CNC(=O)[C@H](CCC(N)=O)NC(=O)C(C)(C)NC(=O)[C@@H](N)Cc4c[nH]cn4)[C@@H](C)O)[C@@H](C)O)C(=O)N[C@@H](CCC(N)=O)C(=O)N[C@@H](C)C(=O)N[C@@H](C)C(=O)N3)[C@@H](C)CC)C(=O)N[C@@H](Cc3c[nH]c4ccccc34)C(=O)N[C@@H](CC(C)C)C(=O)N[C@@H](CC(C)C)C(=O)N[C@@H](CCC(N)=O)C(=O)N[C@H](C(N)=O)[C@@H](C)O)[C@@H](O)[C@H](O)[C@H]2O)[C@H](O)[C@H]1O` [EU-A999]: the EC50 on human GLP-1 receptor turned out to be 0.05 nM.
Turning to `CCCCCCCCCCCCCCCCO[C@@H]1O[C@H](CO[C@H]2O[C@H](C(=O)NCCCC[C@H](NC(=O)[C@@H](NC(=O)[C@H](Cc3ccccc3)NC(=O)[C@H](CCC(=O)O)NC(=O)[C@@H]3CCCCNC(=O)CC[C@H](NC(=O)[C@H](CC(=O)O)NC(=O)[C@H](CC(C)C)NC(=O)[C@H](Cc4ccc(O)cc4)NC(=O)[C@H](CCCCN)NC(=O)[C@H](CO)NC(=O)[C@H](Cc4ccc(O)cc4)NC(=O)[C@H](CC(=O)O)NC(=O)[C@H](CO)NC(=O)[C@@H](NC(=O)[C@H](Cc4ccccc4)NC(=O)[C@@H](NC(=O)CNC(=O)[C@H](CCC(N)=O)NC(=O)C(C)(C)NC(=O)[C@@H](N)Cc4c[nH]cn4)[C@@H](C)O)[C@@H](C)O)C(=O)N[C@@H](CCC(N)=O)C(=O)N[C@@H](C)C(=O)N[C@@H](C)C(=O)N3)[C@@H](C)CC)C(=O)N[C@@H](Cc3c[nH]c4ccccc34)C(=O)N[C@@H](CC(C)C)C(=O)N[C@@H](CC(C)C)C(=O)N[C@@H](CCC(N)=O)C(=O)N[C@H](C(N)=O)[C@@H](C)O)[C@H](O)[C@H](O)[C@H]2O)[C@@H](O)[C@H](O)[C@H]1O` [EU-A1025], the EC50 on human GLP-1 receptor came out at 0.008 nM; at human glucagon receptor, 0.24 nM.
The matching figures for `CCCCCCCCCCCCCCCCO[C@H]1O[C@H](CO[C@H]2O[C@H](C(=O)NCCCC[C@H](NC(=O)[C@@H](NC(=O)[C@H](Cc3ccccc3)NC(=O)[C@H](CCC(=O)O)NC(=O)[C@@H]3CCCCNC(=O)CC[C@H](NC(=O)[C@H](CC(=O)O)NC(=O)[C@H](CC(C)C)NC(=O)[C@H](Cc4ccc(O)cc4)NC(=O)[C@H](CCCCN)NC(=O)[C@H](CO)NC(=O)[C@H](Cc4ccc(O)cc4)NC(=O)[C@H](CC(=O)O)NC(=O)[C@H](CO)NC(=O)[C@@H](NC(=O)[C@H](Cc4ccccc4)NC(=O)[C@@H](NC(=O)CNC(=O)[C@H](CCC(N)=O)NC(=O)C(C)(C)NC(=O)[C@@H](N)Cc4c[nH]cn4)[C@@H](C)O)[C@@H](C)O)C(=O)N[C@@H](CCC(N)=O)C(=O)N[C@@H](C)C(=O)N[C@@H](C)C(=O)N3)[C@@H](C)CC)C(=O)N[C@@H](Cc3c[nH]c4ccccc34)C(=O)N[C@@H](CC(C)C)C(=O)N[C@@H](CC(C)C)C(=O)N[C@@H](CCC(N)=O)C(=O)N[C@H](C(N)=O)[C@@H](C)O)[C@H](O)[C@H](O)[C@H]2O)[C@@H](O)[C@H](O)[C@H]1O` [EU-A1173]: 0.021 nM and 0.463 nM.
For `CCCCCCCCCCCCO[C@@H]1O[C@H](CO[C@H]2O[C@H](C(=O)NCCCC[C@H](NC(=O)[C@@H](NC(=O)[C@H](Cc3ccccc3)NC(=O)[C@H](CCC(=O)O)NC(=O)[C@@H]3CCCCNC(=O)CC[C@H](NC(=O)[C@H](CC(=O)O)NC(=O)[C@H](CC(C)C)NC(=O)[C@H](Cc4ccc(O)cc4)NC(=O)[C@H](CCCCN)NC(=O)[C@H](CO)NC(=O)[C@H](Cc4ccc(O)cc4)NC(=O)[C@H](CC(=O)O)NC(=O)[C@H](CO)NC(=O)[C@@H](NC(=O)[C@H](Cc4ccccc4)NC(=O)[C@@H](NC(=O)CNC(=O)[C@H](CCC(N)=O)NC(=O)C(C)(C)NC(=O)[C@@H](N)Cc4c[nH]cn4)[C@@H](C)O)[C@@H](C)O)C(=O)N[C@@H](CCC(N)=O)C(=O)N[C@@H](C)C(=O)N[C@@H](C)C(=O)N3)[C@@H](C)CC)C(=O)N[C@@H](Cc3c[nH]c4ccccc34)C(=O)N[C@@H](CC(C)C)C(=O)N[C@@H](CC(C)C)C(=O)N[C@@H](CCC(N)=O)C(=O)N[C@H](C(=O)O)[C@@H](C)O)[C@H](O)[C@H](O)[C@H]2O)[C@@H](O)[C@H](O)[C@H]1O` [EU-A1576], the EC50 worked out at 0.032 nM at human GLP-1 receptor and 0.07 nM at human glucagon receptor.
`CCCCCCCCCCCCCCO[C@@H]1O[C@H](CO[C@H]2O[C@H](C(=O)NCCCC[C@H](NC(=O)[C@@H](NC(=O)[C@H](Cc3ccccc3)NC(=O)[C@H](CCC(=O)O)NC(=O)[C@@H]3CCCCNC(=O)CC[C@H](NC(=O)[C@H](CC(=O)O)NC(=O)[C@H](CC(C)C)NC(=O)[C@H](Cc4ccc(O)cc4)NC(=O)[C@H](CCCCN)NC(=O)[C@H](CO)NC(=O)[C@H](Cc4ccc(O)cc4)NC(=O)[C@H](CC(=O)O)NC(=O)[C@H](CO)NC(=O)[C@@H](NC(=O)[C@H](Cc4ccccc4)NC(=O)[C@@H](NC(=O)CNC(=O)[C@H](CCC(N)=O)NC(=O)C(C)(C)NC(=O)[C@@H](N)Cc4c[nH]cn4)[C@@H](C)O)[C@@H](C)O)C(=O)N[C@@H](CCC(N)=O)C(=O)N[C@@H](C)C(=O)N[C@@H](C)C(=O)N3)[C@@H](C)CC)C(=O)N[C@@H](Cc3c[nH]c4ccccc34)C(=O)N[C@@H](CC(C)C)C(=O)N[C@@H](CC(C)C)C(=O)N[C@@H](CCC(N)=O)C(=O)N[C@H](C(=O)O)[C@@H](C)O)[C@H](O)[C@H](O)[C@H]2O)[C@@H](O)[C@H](O)[C@H]1O` [EU-A1577]: the EC50 on human GLP-1 receptor came out at 0.007 nM; on human glucagon receptor, 0.069 nM.
For `CCCCCCCCCCCCCCCCO[C@@H]1O[C@H](CO[C@H]2O[C@H](C(=O)NCCCC[C@H](NC(=O)[C@@H](NC(=O)[C@H](Cc3ccccc3)NC(=O)[C@H](CCC(=O)O)NC(=O)[C@@H]3CCCCNC(=O)CC[C@H](NC(=O)[C@H](CC(=O)O)NC(=O)[C@H](CC(C)C)NC(=O)[C@H](Cc4ccc(O)cc4)NC(=O)[C@H](CCCCN)NC(=O)[C@H](CO)NC(=O)[C@H](Cc4ccc(O)cc4)NC(=O)[C@H](CC(=O)O)NC(=O)[C@H](CO)NC(=O)[C@@H](NC(=O)[C@H](Cc4ccccc4)NC(=O)[C@@H](NC(=O)CNC(=O)[C@H](CCC(N)=O)NC(=O)C(C)(C)NC(=O)[C@@H](N)Cc4c[nH]cn4)[C@@H](C)O)[C@@H](C)O)C(=O)N[C@@H](CCC(N)=O)C(=O)N[C@@H](C)C(=O)N[C@@H](C)C(=O)N3)[C@@H](C)CC)C(=O)N[C@@H](Cc3c[nH]c4ccccc34)C(=O)N[C@@H](CC(C)C)C(=O)N[C@@H](CC(C)C)C(=O)N[C@@H](CCC(N)=O)C(=O)N[C@H](C(=O)O)[C@@H](C)O)[C@H](O)[C@H](O)[C@H]2O)[C@@H](O)[C@H](O)[C@H]1O` [EU-A1578] the same measures were 0.008 nM and 0.355 nM.
The matching figures for `CCCCCCCCCCCCO[C@@H]1O[C@H](CO[C@H]2O[C@H](C(=O)NCCCC[C@H](NC(=O)[C@@H](NC(=O)[C@H](Cc3ccccc3)NC(=O)[C@H](CCC(=O)O)NC(=O)[C@@H]3CCCCNC(=O)CC[C@H](NC(=O)[C@H](CC(=O)O)NC(=O)[C@H](CC(C)C)NC(=O)[C@H](Cc4ccc(O)cc4)NC(=O)[C@H](CCCCN)NC(=O)[C@H](CO)NC(=O)[C@H](Cc4ccc(O)cc4)NC(=O)[C@H](CC(=O)O)NC(=O)[C@H](CO)NC(=O)[C@@H](NC(=O)[C@H](Cc4ccccc4)NC(=O)[C@@H](NC(=O)CNC(=O)[C@H](CCC(N)=O)NC(=O)C(C)(C)NC(=O)[C@@H](N)Cc4c[nH]cn4)[C@@H](C)O)[C@@H](C)O)C(=O)N[C@@H](CCC(=O)O)C(=O)N[C@@H](C)C(=O)N[C@@H](C)C(=O)N3)[C@@H](C)CC)C(=O)N[C@@H](Cc3c[nH]c4ccccc34)C(=O)N[C@@H](CC(C)C)C(=O)N[C@@H](CC(C)C)C(=O)N[C@@H](CCC(N)=O)C(=O)N[C@H](C(=O)O)[C@@H](C)O)[C@H](O)[C@H](O)[C@H]2O)[C@@H](O)[C@H](O)[C@H]1O` [EU-A1581] (H-H[Aib]QGTFTSDYSKYLDEEAAKEFIK(Melibiouronoyl(1β-O-dodecyl))WLLQT-OH; lactam 16-20; N-terminus assumed): 0.086 nM and 1.03 nM.

Usually EC50 stands for the midpoint of the concentration-response curve.
